# In patent publication US20070088031A1, “Novel chemical compounds” (priority 2003, published 2007):
# Biological target: GSK-3β (Homo sapiens, UniProt P49841)
# Test: GSK-3 kinase scintillation proximity assay (SPA) with biotinylated glycogen synthase peptide
# Assay type: biochemical
# Conditions: 20 nM kinase, 2.5 uM ATP, 40 minutes at room temperature; pIC50 = -log IC50 in Molar; read-out: GSK-3 inhibition
# Description: The phosphorylated biotinylated peptide is then captured onto streptavidin coated scintillation proximity assay (SPA) beads from Amersham Technology, where the signal from the ^33P is amplified via the scintillant contained in the beads.
# GSK-3β, is commercially available or may be cloned and expressed in E coli using standard techniques to produce soluble, active protein. The production of active protein involves purification in two steps using Metal Chelate and Ion Exchange Chromatography. Protein eluting from Ion Exchange provides >90% pure product that may then be concentrated for use in high throughput screening.
# The kinase was assayed at a concentration of 20 nM final in 100 mM HEPES, pH 7.2 containing 10 mM magnesium chloride, 0.1 mg/mL bovine serum albumin, 1 mM dithiothreitol, 0.3 mg/mL heparin, 2.8 uM peptide substrate, 2.5 uM ATP, and 0.2 uCi/well γ^33P]-ATP. After 40 minutes incubation at room temperature, the reaction was stopped by addition of 100 mM EDTA and […] in 100 mM HEPES, pH7.2 followed by an additional solution of diluted Streptavidin coated SPA beads in PBS, pH 7.2 to give a final concentration of 0.25 mg of beads per assay well in a 96-well microtiter plate.
# 10 mM stock solutions of the compounds of the invention in 100% DMSO are generated as a first step in the screening process. The second step involves the creation of dose response plates where these compounds are diluted 10-fold in 100% DMSO to 1 mM concentrations and subsequently serially diluted 3-fold in 100% DMSO across the plate by automated liquid handling such that the final top concentration of inhibitor is 0.033 mM in the 30 uL kinase assay. The third step involves the creation of the assay plates. This is achieved by transferring 1 uL of the compounds to assay plates by automated liquid handling. The fourth step is to perform the assay as described and count the resulting plates in the Packard TopCount NXT microplate scintillation and luminescence counter. The final step is data acquisition and analysis where IC50 values are generated for each compound by normalizing curve data to the equation 100*(U1−C2)/(C1−C2) (where U1 is the cpm value, C2 is the background, and C1 is the maximum number of counts), then fitting the normalized data to the equation y=Vmax*(1−(x/(K+x))). The IC50 values were converted to pIC50 values, i.e., -log IC50 in Molar concentration.
# Sequence of GSK-3β (P49841 whole entry, species assumed): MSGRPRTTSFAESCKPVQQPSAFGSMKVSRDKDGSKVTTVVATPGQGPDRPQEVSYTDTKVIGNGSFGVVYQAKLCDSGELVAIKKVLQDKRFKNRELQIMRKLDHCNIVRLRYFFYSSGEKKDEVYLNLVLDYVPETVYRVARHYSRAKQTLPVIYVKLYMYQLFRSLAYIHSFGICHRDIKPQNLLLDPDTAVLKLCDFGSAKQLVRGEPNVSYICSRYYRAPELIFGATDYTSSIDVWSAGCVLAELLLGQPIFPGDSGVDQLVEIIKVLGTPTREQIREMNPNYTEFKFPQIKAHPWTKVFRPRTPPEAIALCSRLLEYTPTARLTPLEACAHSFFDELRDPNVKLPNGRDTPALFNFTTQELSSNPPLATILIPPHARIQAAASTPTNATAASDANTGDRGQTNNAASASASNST
row,IC50,SMILES
1,< 10 nM,"O=C(Nc1ncnc2oc(-c3cccnc3)cc12)C1CCCC1 [Example 20, Cyclopentanecarboxylic acid (6-pyridin-3-yl-furo[2,3-d]pyrimidin-4-yl)-amide]"
2,100 to 1000 nM,"COc1ccc(-c2cc3c(NC(=O)CCSC)ncnc3o2)cc1 [Example 4, N-[6-(4-Methoxy-phenyl)-furo[2,3-d]pyrimidin-4-yl]-3-methylsulfanyl-propionamide]"
3,> 1000 nM,"COc1ccc(-c2cc3c(NC(=O)C4CCCCC4)ncnc3o2)cc1 [Example 6, Cyclohexanecarboxylic acid [6-(4-methoxy-phenyl)-furo[2,3-d]pyrimidin-4-yl]-amide]"
4,10 to 100 nM,"COc1ccc(-c2cc3c(NC(=O)C4CCCC4)ncnc3o2)cc1 [Example 3, Cyclopentanecarboxylic acid [6-(4-methoxy-phenyl)-furo[2,3-d]pyrimidin-4-yl]-amide]"
